In ChEMBL document CHEMBL3396975, “Structural development of stapled short helical peptides as vitamin D receptor (VDR)-coactivator interaction inhibitors” (Bioorg Med Chem, 2015):
Starred links: 1 amine or outer side, 2 acyl side, 3 side chain; linkers in the order of their positions; H or OH if unused. Positions of bridges follow the written chain, without caps; N, C: chain ends. Non-standard residues stand in square brackets, D forms with d. Residues, ends and D or L forms follow the SMILES beside them. *: point of attachment. X2 = O=C(C(CO)(CO)N[*:1])[*:2]; X1 = OC(C[*:1])C(O)C[*:2]; hSer = N[C@@H](CCO)C(=O)O; X3 = C(CC[*:2])C[*:1]; Aib = CC(C)(N)C(=O)O; Allyl = C=CC*

target: T1, Vitamin D3 receptor (Homo sapiens, UniProt P11473); experiment: Inhibition of human VDR-cofactor interaction by EnBio receptor cofactor assay system
T1 sequence (P11473 whole entry): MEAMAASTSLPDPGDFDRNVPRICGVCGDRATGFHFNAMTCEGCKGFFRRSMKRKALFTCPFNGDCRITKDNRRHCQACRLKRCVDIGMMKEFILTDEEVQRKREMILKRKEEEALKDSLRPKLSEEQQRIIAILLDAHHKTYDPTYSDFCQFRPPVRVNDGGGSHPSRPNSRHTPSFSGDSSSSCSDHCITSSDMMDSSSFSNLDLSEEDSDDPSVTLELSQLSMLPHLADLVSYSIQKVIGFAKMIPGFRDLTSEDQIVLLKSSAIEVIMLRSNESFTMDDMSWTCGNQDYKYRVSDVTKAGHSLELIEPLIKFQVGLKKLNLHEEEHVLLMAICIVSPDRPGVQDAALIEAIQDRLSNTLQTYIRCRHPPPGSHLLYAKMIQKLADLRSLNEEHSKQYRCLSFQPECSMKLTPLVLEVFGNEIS

Question: With `C=CCOCC[C@H](NC(=O)[C@H](CC(C)C)NC(=O)[C@H](CC(C)C)NC(=O)C(C)(C)NC(=O)[C@H](CCOCC=C)NC(=O)[C@H](CC(C)C)NC(=O)[C@@H](N)CC(C)C)C(=O)O` (H-LL[hSer](Allyl)[Aib]LL[hSer](Allyl)-OH) as the compound, how does the IC50 read?
Answer: 500 µM

Question: Which IC50 does the source give for `CC(=O)N[C@@H](CC(C)C)C(=O)N[C@@H](CC(C)C)C(=O)N[C@H]1CCOCCCCOCC[C@@H](C(N)=O)NC(=O)[C@H](CC(C)C)NC(=O)[C@H](CC(C)C)NC(=O)C(CO)(CO)NC1=O` (Ac-LL[hSer][X2]LL[hSer]-NH2; linker 3-7 via X3) here?
Answer: 20 µM

Question: `CC(=O)N[C@@H](CC(C)C)C(=O)N[C@@H](CC(C)C)C(=O)N[C@H]1CCOCC(O)C(O)COCC[C@@H](C(N)=O)NC(=O)[C@H](CC(C)C)NC(=O)[C@H](CC(C)C)NC(=O)C(C)(C)NC1=O` (stereo partly drawn) (Ac-LL[hSer][Aib]LL[hSer]-NH2; linker 3-7 via X1) was tested. Which IC50 did it give?
Answer: 67 µM
